Measurements reported in ChEMBL document CHEMBL3124766, “Metabolomics Reveal d-Alanine:d-Alanine Ligase As the Target of d-Cycloserine in Mycobacterium tuberculosis” (ACS Med Chem Lett, 2013).
Calls of active or inactive are those of the source. The calls are words filed in the database; no cut-off is given here.

Experiments:
[1] = system: Mycobacterium tuberculosis; assay: Reduction in intracellular dipeptide D-alanyl-D-alanine pool size in Mycobacterium tuberculosis H37Rv up to 5 times MIC by filter-based mass spectrometry technique; format: functional, organism-based
[2] = Drug metabolism in Mycobacterium tuberculosis H37Rv assessed as compound remaining at 0.25 to 5 times MIC for 16 hrs measured 15 to 60 mins post compound washout; format: ADME, organism-based; details: Mycobacterium tuberculosis H37Rv cells, read-out: Stability
[3] = system: Mycobacterium tuberculosis; assay: Reduction in intracellular total Alanine pool size in Mycobacterium tuberculosis H37Rv at 0.25 to 5 times MIC by filter-based technique; format: functional, organism-based
[4] = target: T1, D-alanine--D-alanine ligase (Mycobacterium tuberculosis) (UniProt P9WP31); assay: Inhibition of D-alanine-D-alanine ligase in Mycobacterium tuberculosis H37Rv assessed as inhibition of denovo D-Alanyl-D-alanine synthesis at 2 times MIC preincubated for 16 hrs followed L-Ala-[13C]-[3H] addition measured over 8 hrs by LC-MS/MS analysis
T1 sequence (whole entry): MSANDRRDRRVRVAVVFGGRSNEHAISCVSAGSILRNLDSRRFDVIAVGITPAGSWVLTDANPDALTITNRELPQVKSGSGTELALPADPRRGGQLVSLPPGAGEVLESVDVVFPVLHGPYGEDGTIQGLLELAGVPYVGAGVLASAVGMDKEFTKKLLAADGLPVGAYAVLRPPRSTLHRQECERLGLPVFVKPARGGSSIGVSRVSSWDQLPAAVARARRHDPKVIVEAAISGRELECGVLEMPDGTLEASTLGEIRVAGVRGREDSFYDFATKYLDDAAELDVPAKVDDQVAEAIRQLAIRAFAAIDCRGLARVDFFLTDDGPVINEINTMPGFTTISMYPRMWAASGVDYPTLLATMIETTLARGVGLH

[5] = system: Mycobacterium tuberculosis; assay: Ratio of MIC for Mycobacterium tuberculosis H37Rv in presence of D-Alanine to MIC for Mycobacterium tuberculosis H37Rv; format: functional
[6] = target: T1, D-alanine--D-alanine ligase (Mycobacterium tuberculosis); assay: Inhibition of D-alanine-D-alanine ligase in Mycobacterium tuberculosis H37Rv assessed as depletion in D-Alanyl-D-alanine level preincubated for 16 hrs measured post 24 hrs of compound washout
[7] = target: T1, D-alanine--D-alanine ligase (Mycobacterium tuberculosis); assay: Inhibition of D-alanine-D-alanine ligase in Mycobacterium tuberculosis H37Rv assessed as inhibition of denovo D-Alanyl-D-alanine synthesis at MIC preincubated for 16 hrs followed by L-Ala-[13C]-[3H] addition measured over 8 hrs by LC-MS/MS analysis
[8] = target: T1, D-alanine--D-alanine ligase (Mycobacterium tuberculosis); assay: Competitive inhibition of D-alanine-D-alanine ligase in Mycobacterium tuberculosis H37Rv at MIC preincubated for 16 hrs followed by D-Ala-[2H] addition measured over 8 hrs by LC-MS/MS analysis
[9] = system: Mycobacterium tuberculosis; assay: Antimycobacterial activity against Mycobacterium tuberculosis H37Rv at 0.25 to 16 times MIC after 7 days in presence of D-Alanine; format: functional, organism-based
[10] = system: Mycobacterium tuberculosis; assay: Antimycobacterial activity against Mycobacterium tuberculosis H37Rv at 0.25 to 16 times MIC after 7 days in presence of L-Alanine; format: functional, organism-based
[11] = target: T2, Alanine racemase (Mycobacterium tuberculosis) (UniProt P9WQA9); assay: Inhibition of alanine racemase in Mycobacterium tuberculosis H37Rv at 5 times MIC preincubated for 16 hrs followed by compound re-addition with L-Ala-[13C]-[3H] measured over 8 hrs by LC-MS/MS analysis
T2 sequence (whole entry): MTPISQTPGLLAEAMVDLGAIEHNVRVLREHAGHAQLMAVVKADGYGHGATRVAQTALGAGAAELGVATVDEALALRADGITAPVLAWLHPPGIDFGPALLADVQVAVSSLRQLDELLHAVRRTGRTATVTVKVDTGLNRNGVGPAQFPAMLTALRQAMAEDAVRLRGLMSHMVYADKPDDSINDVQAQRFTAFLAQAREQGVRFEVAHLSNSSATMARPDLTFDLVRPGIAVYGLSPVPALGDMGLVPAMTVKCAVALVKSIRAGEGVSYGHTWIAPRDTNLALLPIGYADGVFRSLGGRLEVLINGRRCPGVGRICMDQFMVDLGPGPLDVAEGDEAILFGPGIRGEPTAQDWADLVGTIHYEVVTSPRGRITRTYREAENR

[12] = system: Mycobacterium tuberculosis; assay: Reduction in intracellular dipeptide D-alanyl-D-alanine pool size in Mycobacterium tuberculosis H37Rv at MIC by filter-based mass spectrometry technique; format: functional, organism-based
[13] = system: Mycobacterium tuberculosis; assay: Reduction in intracellular total Alanine pool size in Mycobacterium tuberculosis H37Rv at MIC by filter-based mass spectrometry technique; format: functional, organism-based

CN[C@@H]1[C@H](O[C@H]2[C@H](O[C@H]3[C@H](O)[C@@H](O)[C@H](N=C(N)N)[C@@H](O)[C@@H]3N=C(N)N)O[C@@H](C)[C@]2(O)C=O)O[C@@H](CO)[C@H](O)[C@H]1O
Activity [1]: inactive

N[C@@H]1CON=C1O [CYCLOSERINE]
remaining at 16 h [2]: < 10%

N[C@@H]1CONC1=O [CYCLOSERINE]
Activity [3]: Active
inhibition [4]: Active
Ratio [5]: 2
inhibition [6]: Dose-dependent effect
inhibition [7]: Active
Activity [8]: inactive
Activity [9]: inactive
Activity [1]: Dose-dependent effect
Activity [10]: Active
inhibition [11]: inactive

N[C@H]1CONC1=O [LEVCYCLOSERINE]
Ratio [5]: 4
Activity [12]: Active
Activity [9]: inactive
Activity [13]: Active
Activity [10]: inactive
